Experimental data: publication PMC11269945, “HTRF-based assay for detection of mono-ADP-ribosyl hydrolyzing macrodomains and inhibitor screening” (iScience, 2024)
Counter-ions that a name gives are not always drawn. Like-named read-outs stand apart in the source and are kept apart here.

T1: PARP14 Mac2/3 (Homo sapiens, UniProt Q460N5)
T1 sequence (Q460N5 994-1393): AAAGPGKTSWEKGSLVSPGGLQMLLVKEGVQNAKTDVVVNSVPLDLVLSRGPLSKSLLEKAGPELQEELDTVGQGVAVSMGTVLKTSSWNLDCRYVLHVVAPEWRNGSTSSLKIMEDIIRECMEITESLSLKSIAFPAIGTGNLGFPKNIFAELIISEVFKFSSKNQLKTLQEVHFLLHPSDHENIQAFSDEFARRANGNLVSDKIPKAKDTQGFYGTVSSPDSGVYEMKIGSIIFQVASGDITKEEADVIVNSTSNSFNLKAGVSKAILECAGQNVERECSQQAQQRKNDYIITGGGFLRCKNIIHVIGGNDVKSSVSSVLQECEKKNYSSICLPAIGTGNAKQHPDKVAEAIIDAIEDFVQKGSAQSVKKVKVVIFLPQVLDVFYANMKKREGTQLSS

T2: MacroD1 (Homo sapiens, UniProt Q9BQ69)
T2 sequence (Q9BQ69 90-325): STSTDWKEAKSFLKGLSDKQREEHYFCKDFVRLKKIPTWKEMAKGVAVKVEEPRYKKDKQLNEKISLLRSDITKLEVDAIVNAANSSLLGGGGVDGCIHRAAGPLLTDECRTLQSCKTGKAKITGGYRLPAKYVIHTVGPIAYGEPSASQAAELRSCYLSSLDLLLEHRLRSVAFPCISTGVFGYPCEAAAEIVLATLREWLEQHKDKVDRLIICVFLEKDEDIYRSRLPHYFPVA

T3: TARG1 (Homo sapiens, UniProt Q9Y530)
T3 construct: "Uniprot: Q9Y530" res; His10 with TEV site (N, cleaved yes); made in house; host or cells: E. coli T7-express
T3 sequence (Q9Y530 3-152): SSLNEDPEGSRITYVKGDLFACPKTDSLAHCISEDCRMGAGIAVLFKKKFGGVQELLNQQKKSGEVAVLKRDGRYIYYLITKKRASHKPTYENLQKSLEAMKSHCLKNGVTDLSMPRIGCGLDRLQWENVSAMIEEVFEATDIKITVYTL

T4: MacroD2 (Homo sapiens, UniProt A1Z1Q3)
T4 sequence (A1Z1Q3 4-243): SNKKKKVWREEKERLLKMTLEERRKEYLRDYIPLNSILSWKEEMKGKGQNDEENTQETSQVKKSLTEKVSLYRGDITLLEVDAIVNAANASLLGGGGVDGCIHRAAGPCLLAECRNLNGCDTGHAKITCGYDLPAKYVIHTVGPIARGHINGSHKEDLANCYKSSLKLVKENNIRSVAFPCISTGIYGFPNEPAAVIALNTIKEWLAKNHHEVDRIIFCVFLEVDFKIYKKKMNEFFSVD


What was measured:
HCoV-229e macrodomain = HCoV-229e macrodomain (Human coronavirus 229E, UniProt P0C6X1); assay: DeMAR HTRF deMARylation assay, wash protocol; format: biochemical
CHIKV macrodomain = CHIKV macrodomain (Chikungunya virus, UniProt Q8JUX6, C1333S); format: biochemical, Chikungunya (CHIKV) alphavirus
PARP14 Mac2/3 = target: T1, PARP14 Mac2/3; assay: biochemical; format: binding
SARS-CoV-2 Mac1 [1] = target: T5, SARS-CoV-2 Mac1 (Severe acute respiratory syndrome coronavirus 2, UniProt P0DTD1); format: biochemical
SARS-CoV-2 Mac1 [2] = target: T5, SARS-CoV-2 Mac1; assay: biochemical
MacroD1 [3] = target: T2, MacroD1; assay: biochemical
MacroD1 [4] = target: T2, MacroD1; design: method as in PMID 18983849; settings: read-out: Kd for free ADPr, MacroD1; cited from earlier work
TARG1 = target: T3, TARG1; format: biochemical; settings: read-out: IC50 TARG1
MacroD2 = target: T4, MacroD2; format: biochemical; settings: read-out: IC50 MacroD2
MARylated Tb-PARP10cat [5] = format: biochemical, human
MARylated Tb-PARP10cat [6] = format: biochemical, human; remark: listed apart in the source
[7] = read-out: IC50 HCoV-229e, wash setup, 2 h, 80 nM macrodomain, 6 nM immobilized Tb-PARP10cat

Molecule | IC50 (HCoV-229e macrodomain; [7]) | readout quenching in one-pot setup (PARP14 Mac2/3 off-target), in words (PARP14 Mac2/3) | EC80 One-pot (1 h) (MARylated Tb-PARP10cat [5]) | EC80 Wash (2 h) (MARylated Tb-PARP10cat [6]) | further results
N#C[C@@]1(c2ccc3c(N)ncnn23)O[C@H](CO)[C@@H](O)[C@H]1O [GS-441524] | > 667 µM | clear and concentration-dependent loss of signal | – | – | IC50 CHIKV (CHIKV macrodomain): slight activity; inhibition of SARS-CoV-2 Mac1 in words (SARS-CoV-2 Mac1 [1]): slightly inhibits
Oc1c(Cl)cc(Cl)c(Cl)c1Cc1c(O)c(Cl)cc(Cl)c1Cl [hexachlorophene] | – | – | – | – | inhibition of SARS-CoV-2 Mac1 in words (SARS-CoV-2 Mac1 [1]): limited efficacy
O=C(Nc1ccc(C(=O)NC2c3cccc(O)c3CC2C(=O)O)c(O)c1)NC1CC1 (centres unmarked) [Z8539_0072] | > 667 µM | – | – | – | IC50 (SARS-CoV-2 Mac1 [2]): 14 µM
O=C(Nc1ccc(C(=O)NC2c3cccc(O)c3CC2C(=O)O)cc1)NC1CC1 (centres unmarked) [Z8539] | > 667 µM | does not show a strong quenching effect | – | – | –
Nc1ncnc2c1ncn2C1OC(COP(=O)(O)OP(=O)(O)OCC2OC(O)C(O)C2O)C(O)C1O (centres unmarked) [ADPr, Adenosine 5′-diphosphoribose sodium salt] | – | – | – | – | IC50 (HCoV-229e macrodomain): ~460 µM; IC50 (MacroD1 [3]): 2000 nM; IC50 (PARP14 Mac2/3): 67 µM; Kd (MacroD1 [4]): 900 nM
O=C(Nc1ccccc1)Nc1ccc(C(=O)NC2c3cccc(O)c3CC2C(=O)O)cc1 (centres unmarked) [Z8539_0023] | – | pronounced readout quenching | – | – | IC50 (TARG1): > 667 µM; IC50 (MacroD1 [3]; read-out: IC50 MacroD1): > 667000 nM; IC50 (MacroD2): > 667 µM; IC50 (SARS-CoV-2 Mac1 [2]): 6 µM
TARG1: recombinant human TARG1, Uniprot Q9Y530 res. S3-152 (protein, UniProt Q9Y530 3-152, looked up, fragment) SSLNEDPEGSRITYVKGDLFACPKTDSLAHCISEDCRMGAGIAVLFKKKFGGVQELLNQQKKSGEVAVLKRDGRYIYYLITKKRASHKPTYENLQKSLEAMKSHCLKNGVTDLSMPRIGCGLDRLQWENVSAMIEEVFEATDIKITVYTL | – | – | ∼2256 nM | ∼ 830 nM | –
MacroD2: recombinant human MacroD2, Uniprot A1Z1Q3 res. 4-243 (protein, UniProt A1Z1Q3 4-243, looked up, fragment) SNKKKKVWREEKERLLKMTLEERRKEYLRDYIPLNSILSWKEEMKGKGQNDEENTQETSQVKKSLTEKVSLYRGDITLLEVDAIVNAANASLLGGGGVDGCIHRAAGPCLLAECRNLNGCDTGHAKITCGYDLPAKYVIHTVGPIARGHINGSHKEDLANCYKSSLKLVKENNIRSVAFPCISTGIYGFPNEPAAVIALNTIKEWLAKNHHEVDRIIFCVFLEVDFKIYKKKMNEFFSVD | – | – | 3 nM | 2 nM | –
MacroD1: recombinant human MacroD1, Uniprot Q9BQ69 res. 90-325 (protein, UniProt Q9BQ69 90-325, looked up, fragment) STSTDWKEAKSFLKGLSDKQREEHYFCKDFVRLKKIPTWKEMAKGVAVKVEEPRYKKDKQLNEKISLLRSDITKLEVDAIVNAANSSLLGGGGVDGCIHRAAGPLLTDECRTLQSCKTGKAKITGGYRLPAKYVIHTVGPIAYGEPSASQAAELRSCYLSSLDLLLEHRLRSVAFPCISTGVFGYPCEAAAEIVLATLREWLEQHKDKVDRLIICVFLEKDEDIYRSRLPHYFPVA | – | – | 4 nM | 3 nM | –
HCoV-229e: recombinant HCoV-229E macrodomain, Uniprot P0C6X1 res. E1270-1437 (protein, UniProt P0C6X1 1270-1437, looked up, fragment, Non-structural protein 3 macrodomain) EKLNAFLVHDNVAFYQGDVDTVVNGVDFDFIVNAANENLAHGGGLAKALDVYTKGKLQRLSKEHIGLAGKVKVGTGVMVECDSLRIFNVVGPRKGKHERDLLIKAYNTINNEQGTPLTPILSCGIFGIKLETSLEVLLDVCNTKEVKVFVYTDTEVCKVKDFVSGLVN | – | – | 36 nM | 15 nM | –
